Holding throughout (format): physicochemical
Series [1] is described as follows: Kinematic viscosity with capillary Cannon-Fenske viscometers; Viscosity Index calculated per ASTM D2270. The conditions noted are these: for Viscosity Index: calculated per ASTM D2270 from viscosities at 40°C and 100°C; for Viscosity, mm^2/s at 40°C: kinematic viscosity at 40°C; for Viscosity, mm^2/s at 100°C: kinematic viscosity at 100°C. On the procedure:
Kinematic viscosities at 40°C and 100°C were measured using capillary Cannon-Fenske viscometers per ASTM […]. Viscosity Index (the value, describing the rate of thinning with increasing temperature) was calculated per ASTM D2270.

The nature of series [2]: Pour point and cloud point, cooling regime of ASTM D97. The conditions noted are these: for Cloud point, °C: visual inspection during the same run. How it is done:
Pour points and cloud points were determined using the same thermal cooling regime, as instructed by ASTM D97. The sample sizes were 5 to 15 mL during the measurements.
Cloud points were determined during the same run by visual inspection of the sample appearance at low temperature. The samples were removed from the freezer every 3°C for visual inspection and, if cloudy, meniscus movement with inversion. The pour point resembled the last measurement, at which the meniscus boundary was still moving within 5 seconds of horizontal inversion. All samples were tested in duplicate.
In engine oils and hydraulic fluids, low temperature fluidity is primarily determined by pour points [ASTM D97]. Generally, pour points below -30°C are considered sufficient. Some polymer additives, e.g. "Pour Point Depressants" (PPD), are able to improve low temperature fluidity. […] Therefore, initially pour points and cloud points [ASTM D2500 "Standard Test Method for Cloud Point of Petroleum Products and Liquid Fuels"] of α-ω dibasic esters were evaluated and shown in Table 4.

Series [3] can be described thus: Thin film test, volatile losses (500 µm oil film on steel coupon, forced-draft oven, gravimetric). The note with it: for Volatile emissions, 16 hrs / Volatile emissions, 36 hrs: 500 µm thick films at 120°C. An excerpt:
(§1) The exact procedure, used here, has been described in detail by Stoncius, A. et al. in "Volatiles from Thin Film Degradation of Bio-based, Synthetic and Mineral Basestocks", published in Industrial Lubrication & Tribology, 2013, 65 (3) 209-215, 2013, Emerald Group Publishing Edition or by Brazinskiene, D. et al. in "Ester Basestock Vaporisation from Thin Oil Films", published in Lubrication Science, DOI: 10.1002/ls.1372, pp 1-17, 2017, Wiley Edition.
(§2) Briefly, an oil film of 500 µm thickness was coated on steel coupon and heated at given temperature for specific duration in a forced-draft oven. Afterwards, the volatile losses and insoluble residues were measured gravimetrically.
As discussed in the prior-art review, volatility can be successfully evaluated in a thin film test as described by Stoncius, A. et al. in "Volatiles from Thin Film Degradation of Bio-based, Synthetic and Mineral Basestocks" published in Industrial Lubrication & Tribology, 2013, 65 (3) 209-215, Emerald Group Publishing Edition or by Brazinskiene, D. et al. in "Ester Basestock Vaporisation from Thin Oil Films" published in Lubrication Science, DOI: 10.1002/ls.1372, pp 1-17, 2017, Wiley Edition. This thin-film method is much better suited for hydraulic fluid applications than NOACK or other tests, which employ 250°C or similar temperatures, related to engine oil applications. Also, the above method accounts for longer term decomposition reactions due to exposure to metal surfaces and oxidation, which is prevalent in hydraulic applications. Therefore, using the thin-film method short-term vapor losses were measured after 16 hrs and decomposition trends were compared after 36 hrs of testing. Heating temperature of 120°C was selected to compare thin films of α,ω dibasic esters with commercial basestocks. Table 5. Volatile emissions, % w/w from 500 µm thick films of α-ω dibasic esters and commercial basestocks at 120°C

The nature of series [4]: Thin film test, oxidative stability (time to insoluble residues and to solidification). The note with it: 500 µm thick films at 120°C; for Vapor loss at solidification: at the duration of full film solidification.
From the text: as §1, §2
Therefore, thin films of commercial basestocks and α-ω dibasic esters were compared by exposing their thin films to 120°C as described by Stoncius, A. et al. in "Volatiles from Thin Film Degradation of Bio-based, Synthetic and Mineral Basestocks" published in Industrial Lubrication & Tribology, 2013, 65 (3), 209-215, Emerald Group Publishing Edition or by Brazinskiene, D. et al. in "Ester Basestock Vaporisation from Thin Oil Films" published in Lubrication Science, DOI: 10.1002/ls.1372, pp 1-17, 2017, Wiley Edition.
The thin-film method determines how resistant oil is against formation of insoluble residues during oxidation. Degradation durations until initial formation of solid residues and complete solidification directly relate to oxidative stability.

Series [5] in a line: Solubility of lubricant additives in the basestocks. The conditions noted are these: for Solubility of 1% w/w Vanlube 7723: Alkyl dithiocarbamate; for Solubility of 1% w/w Vanlube 7723 / Solubility of 1% w/w Irgalube ML605A / Solubility of 1% w/w Vanlube 7611 M / Solubility of 5% w/w Viscoplex 10-310 / Solubility of 2% w/w Vanlube RI- A / Solubility of 1% w/w Cobratec TT-100: mixed in at 50°C or lower, held longer than a week at room temperature; for Solubility of 1% w/w Irgalube ML605A: Amine and phosphate derivatives; for Solubility of 1% w/w Vanlube 7611 M: Phosphoro dithioate; for Solubility of 5% w/w Viscoplex 10-310: Poly alkyl methacrylate; for Solubility of 2% w/w Vanlube RI- A: Soap and ester derivatives; for Solubility of 1% w/w Cobratec TT-100: Tolyl triazole; for Initial solution appearance: all tested additives blended in, unchanged after 1 week at room temperature. On the procedure:
Several typical lubricant additives have been tested for solubility in α-ω dibasic esters of 2-ethyl hexanol 26U18 and 26S12 as well as commercial basestock 350N. The additives were mixed in at temperatures of 50°C or lower and held for longer than a week at room temperature. Table 7. Solubility of lubricant additives, dissolved in α-ω dibasic esters and commercial basestocks
The additives were selected to represent different chemical categories: soaps, heterocycles, phosphorous derivatives, polymers, etc. Most of these additives are designed to be dissolved in paraffinic mineral oils and synthetic lubricants with some heating. It is often thought that esters are better solvents than mineral oils or synthetic hydrocarbons like poly α-olefins. Therefore, the tested concentrations were much higher than additive proportions for hydraulic fluids, as recommended by the additive manufacturers.

For “1,12-di(2-ethylhexyl) dodecanedioate [26S12, reference compound]”, in series [1], the “Viscosity Index” value is recorded as 147; the “Viscosity, mm^2/s at 40°C” value is recorded as 14.72 mm^2/s; the “Viscosity, mm^2/s at 100°C” value was 3.72 mm^2/s. Moreover, in series [2], the “Pour point, °C” value is -48 °C and the “Cloud point, °C” value was -30 °C. In series [3], the “Volatile emissions, 16 hrs” value was 0.8 % w/w and the “Volatile emissions, 36 hrs” value was found to be 1.75 % w/w. The volatility result in series [3] (result in words, thin films at 120°C) is “much lower volatility”. Further, in series [4], the Full solidification observed was 655 h, the Initial residues observed was found to be 583 h and the “Vapor loss at solidification” value came to 86% w/w. In series [5], the “Solubility of 1% w/w Vanlube 7723” value is given as “soluble”, the “Solubility of 1% w/w Irgalube ML605A” value was “soluble”, the “Solubility of 1% w/w Vanlube 7611 M” value is given as “soluble” and the “Solubility of 5% w/w Viscoplex 10-310” value was “soluble”. Further, in series [5], the “Solubility of 2% w/w Vanlube RI- A” value was “soluble”; the “Solubility of 1% w/w Cobratec TT-100” value is “soluble”; the Initial solution appearance entry was “bright and clear”.
“1,18-di(2-ethylhexyl) octadec-9-enedioate [26U18]”: in series [1], the “Viscosity Index” value is recorded as 197; the “Viscosity, mm^2/s at 40°C” value was 22.74 mm^2/s; the “Viscosity, mm^2/s at 100°C” value was 5.53 mm^2/s. For the same substance, in series [2], the “Pour point, °C” value was -57 °C and the “Cloud point, °C” value is -36 °C. Also, in series [3], the “Volatile emissions, 16 hrs” value turned out to be 5.5 % w/w and the “Volatile emissions, 36 hrs” value is 10.7 % w/w. Besides, in series [4], the Full solidification observed was determined as 320 h, the Initial residues observed came to 248 h and the “Vapor loss at solidification” value turned out to be 57% w/w. In addition, in series [5], the “Solubility of 1% w/w Vanlube 7723” value was “soluble”, the “Solubility of 1% w/w Irgalube ML605A” value is reported as “soluble”, the “Solubility of 1% w/w Vanlube 7611 M” value was “soluble” and the “Solubility of 5% w/w Viscoplex 10-310” value is recorded as “soluble”. Further, in series [5], the “Solubility of 2% w/w Vanlube RI- A” value is given as “soluble”; the “Solubility of 1% w/w Cobratec TT-100” value is “soluble”; the Initial solution appearance entry was “bright and clear”.

Values taken from patent EP3483233A1, “LUBRICANT BASE OIL COMPOSITIONS OF MONO-UNSATURATED DIBASIC ACID ESTERS WITH BRANCHED ALCOHOLS” (ARKEMA FRANCE, priority 2017, dated 2019).
